≈ marks a conversion by molar mass, not a printed value.
Experiments:
[1] = system: Staphylococcus aureus SG 511; assay: Agar diffusion test (hole-test); format: cell-based; conditions: SG511, 18-20 hours at 37° C., read-out: MIC, A.D.T., Staphylococcus aureus SG 511
Protocol: (§1) The inhibitory effect on bacteria and fungi was examined by the serial dilution test and the agar diffusion test (hole-test). As bacteria were used: Staphylococcus aureus SG 511, Streptococcus Aronson, Streptococcus pyogenes At CC 86 68; as fungi: Candida albicans AT CC 10231, Trichophyton mentagrophytes AT CC 9129 and Aspergillus niger.
1. Meat extract agar: for St. aureus SG 511
(§2) The age of the primary cultures is 24 hours for bacteria and 14 days for fungi. The standardization of the suspension of microorganisms is effected using a photometer according to Eppendorf (test tube .phi.14 mm, filter 546 nm) and a suspension for comparison consisting of barium sulfate, this suspension being created by addition of 3.0 ml of 1% barium chloride solution to 97 ml of 1% sulfuric acid. After the standardization St. aureus SG 511 was diluted 1:1000 and Sc. pyogenes and Aronson 1:100 by means of sodium chloride solution. The fungi were used in an undiluted state.
(§3) 40 mgm of the substance were put into a 10 ml measuring flask and filled up to the mark with the solvent (corresponds to a dilution of 1:250=4000 μg/ml).
(§4) The dilutions to the concentrations under test were effected with distilled water or the respective solvent.
(§5) 19 ml of the nutrient medium were filled into sterile Petri dishes of a diameter of 8 cm and dried. Subsequently the agar plates were charged with 4 ml of seed agar. 100 ml of seed agar contain 1.25 ml of the suspension of microorganisms, an agar plate thus containing 0.05 ml of the suspension of microorganisms. After solidification of the agar, 5 holes of a diameter of 5 mm were punched into the plates and filled with 0.05 ml of the correspondingly concentrated substance solution.
(§6) Control tests merely using the solvent are to be carried out simultaneously.
(§7) Bacteria were incubated at 37° C. for 18-20 hours and fungi at 27° C. for 7 days.
(§8) The diameter of the area of inhibition in mm was measured after having deducted the diameter of the hole.

[2] = system: Staphylococcus aureus SG 511; assay: Serial dilution test; format: cell-based; conditions: for MIC: Staphylococcus aureus, SG511, 18-20 hours at 37° C., read-out: MIC, S.D.T., Staphylococcus aureus SG 511
Protocol: as §1
1. Meat extract broth: for St. aureus SG 511
(§9) The age of the primary cultures is 24 hours for bacteria and 14 days for fungi. The standardization of the suspension of microorganisms is effected using a photometer according to Eppendorf (test tube .phi.14 mm, filter 546 nm) and a suspension for comparison consisting of barium sulfate, this suspension being created by adition of 3.0 ml of 1% barium chloride solution to 97 ml of 1% sulfuric acid. After the standardization the bacteria were further diluted to a concentration of 1:1000 by means of sodium chloride solution, the fungi were used in an undiluted state.
(§10) 40 mgm of the substance were put into a 10 ml measuring flask and filled up to the mark with the solvent (corresponds to a dilution of 1:250=4000 μg/ml). The further dilution series was standardized with distilled water or the respective solvent and the following substance concentrations were prepared: 1000; 250; 62.5 μg/ml.
(§11) The tubes were filled with 4.9 ml of the corresponding liquid nutrient medium. Then 0.1 ml of the substance dilution prepared above was added to each tube, so that the mentioned final concentrations were present. Finally each tube was inoculated with 0.1 ml of the standardized suspension of microorganisms. Control tests merely using the solvent are to be carried out simultaneously.
as §7
(§12) The measurement is carried out macroscopically defining the minimal inhibitory concentration (the lowest still microbiostatically effective concentration).

Streptococcus Aronson [3] = assay: Agar diffusion test (hole-test); format: cell-based; conditions: 18-20 hours at 37° C., read-out: MIC, A.D.T., Streptococcus Aronson
Protocol: as §1
(§13) 2. Glucose agar: for Sc. Aronson and St. pyogenes Recipe see meat extract agar. After sterilization 1 weight percent of glucose is added as a sterile 50% solution.
as §2, §3, §4, §5, §6, §7, §8

[4] = system: Streptococcus pyogenes At CC 86 68; assay: Agar diffusion test (hole-test); format: cell-based; conditions: ATCC8668, 18-20 hours at 37° C., read-out: MIC, A.D.T., Streptococcus pyogenes
Protocol: as §1, §13, §2, §3, §4, §5, §6, §7, §8

Streptococcus Aronson [5] = assay: Serial dilution test; format: cell-based; conditions: for MIC: Streptococcus, 18-20 hours at 37° C., read-out: MIC, S.D.T., Streptococcus Aronson
Protocol: as §1
(§14) 2. Glucose broth: for Sc. Aronson and St. pyogenes Recipe see meat extract broth. After sterilization 1 weight percent of glucose is added as a sterile 50% solution.
as §9, §10, §11, §7, §12

[6] = system: Streptococcus pyogenes At CC 86 68; assay: Serial dilution test; format: cell-based; conditions: for MIC: Streptococcus pyogenes, ATCC8668, 18-20 hours at 37° C., read-out: MIC, S.D.T., Streptococcus pyogenes
Protocol: as §1, §14, §9, §10, §11, §7, §12

Corynebacterium acnes = assay: Serial dilution test for Corynebacterium acnes; format: cell-based; conditions: Cutibacterium acnes, 37° C. for 48 hours, read-out: MIC, S.D.T., Corynebacterium acnes
Protocol: Serial dilution test for Corynebacterium acnes and Pityrosporum ovale Nutrient medium
For Corynebacterium acnes: thioglycolate-broth for Pityrosporum ovale: Littmann's broth, 5 ml per tube.
Suspension of microorganisms in 0.9% sodium chloride solution, standardized using a photometer according to Eppendorf by means of a suspension for comparison consisting of barium sulfate, for Corynebacterium acnes in a dilution of 1:100, for Pityrosporum ovale in an undiluted state. 0.1 ml of the suspensions was used per test tube. Dimethyl sulfoxide served as a solvent for the substances.
The suspension with Corynebacteria acnes was incubated at 37° C. for 48 hours, the suspension of Pityrosporum ovale at 27° C. for 7 days. The reading was effected by macroscopic evaluation of the growth of microorganisms and registration of the minimal inhibitory concentration.

[7] = target: glucose-6-phosphate-dehydrogenase; assay: Inhibition of glucose-6-phosphate-dehydrogenase (G6PDH); format: biochemical
Protocol: Measurement of the inhibition of the glucose-6-phosphatedehydrogenase
The equilibrium was observed:
Glucose-6-phosphate+NADP^+ G6-DH gluconic
acid-6-phosphate+NADPH+H^+
(NADP=nicotinamide-adenine-dinycleotide-phosphate, G6P-DH=gluconic acid-6-phosphate-dehydrogenase)
The formation velocity of NADPH is a measure for the enzyme activity; it may be observed by means of the extinction increase at 340, 334 or 366 nm per unit of time.
0.025 ml of glucose-6-phosphate-dehydrogenase (Boehringer Mannheim) were filled up to 10 ml of distilled water (solution I). 100 mgm of nicotinamide-adenine-dinucleotide-phosphate were dissolved in 13 ml of distilled water (solution II). 47.2 mgm of glucose-6-phosphate were dissolved in further 10 ml of distilled water (solution 3). Simultaneously a buffer solution (solution IV) was prepared as follows: 0.28 gm of triethanolamine-hydrochloride and 1.461 gm of ethylene diaminotetraacetic acid-disodium salt were dissolved in 1 liter of distilled water and adjusted to a pH of 7.6 with sodium hydroxide solution. The substance under test was dissolved in dimethyl formamide or ethanol (solution V). Tested concentrations: 50; 25; 12.5; 6.25; 3.125; 1.56 and 0.78 μg/ml.
0.1 ml of solution I, 0.1 ml of solution II, 2.67 ml of solution IV and 0.03 ml of solution V were mixed and kept at 25° C. for 5 minutes. Then 0.1 ml of solution III was added, mixed and the alteration of extinction was determined spectrophotometrically at 366 nm for 3 minutes.
0.1 ml of solution I, 0.1 ml of solution II, 2.67 ml of solution IV and 0.03 ml of solution V were mixed and kept at 37° C. for 60 minutes. Then 0.1 ml of solution III was added, mixed and the alteration of extinction was measured spectrophotometrically at 366 nm for 3 minutes.
The inhibitory values were calculated from the average values of three measurements (alteration of extinction per minute) compared with controls, which received the pure solvent as the inhibitory solution. Then the ED50 was calculated according to Reed and Muench from the inhibitory values for the various concentrations.

HeLa-cell culture = assay: Inhibition of HeLa cell cultures; format: cell-based; conditions: Homo sapiens, 72 h, 37° C. for 3 days, 5% carbon dioxide
Protocol: Measurement of the inhibition of cell cultures
HeLa-cell culture was treated with trypsin and adjusted to a cell number of 150,000 cells/ml of fresh medium. The substance was always dissolved in the same quantity of dimethyl sulfoxide and then further diluted with growth medium. 0.1 ml of the substance-dilutions were added to each well of microtiter plates and then 0.2 ml of cell suspension were added (4 wells per dilution). Several growth controls containing 0.1 ml of growth medium instead of 0.1 ml of substance dilution were put up. After careful mixing, the cultures were incubated at 37° C. for 3 days in a 5% carbon dioxide atmosphere. The reading was effected in comparison with these controls. The results were given as the percentage of the deficiency and degeneration compared to the growth control. […] The statements are referred to μg of substance per ml of total medium.

[8] = reduced growth at this concentration

`CCCCCCCCCc1cc(C(=O)C(F)(F)F)c(O)cc1O` [J, 2,4-Dihydroxy-5-n-nonyl-trifluoroacetophenone] was tested, and the MIC [1] was at most 15.6 µg/mL, the MIC [2] was 5 µg/mL (≈ 15 µM) and the “Concentration with reduced growth (value in brackets), S.D.T., Staphylococcus aureus SG 511” value [2, 8] was 1.25 µg/mL. The MIC (Streptococcus Aronson [3]) was at most 15.6 µg/mL, the MIC [4] was at most 15.6 µg/mL and the MIC (Streptococcus Aronson [5]) was 5 µg/mL (≈ 15 µM). For the same compound, the MIC [6] was 1.25 µg/mL (≈ 3.76 µM), the “Concentration with reduced growth (value in brackets), S.D.T., Streptococcus pyogenes” value [6, 8] was 0.08 µg/mL and the MIC (Corynebacterium acnes) was 0.02 µg/mL (≈ 0.0602 µM).
Compound `CCc1cc(C(=O)C(F)(F)F)c(O)c(Cc2c(O)c(CC)cc(C(=O)C(F)(F)F)c2O)c1O` [R, Methylene-bis-(2,6-dihydroxy-3-ethyl-5-trifluoro-acetyl)-benzene] has an MIC [1] of at most 15.6 µg/mL, an MIC [2] of 0.08 µg/mL (≈ 0.167 µM) and an MIC (Streptococcus Aronson [3]) of at most 15.6 µg/mL. For the same compound, the MIC [4] was at most 15.6 µg/mL, the MIC (Streptococcus Aronson [5]) was 0.31 µg/mL (≈ 0.645 µM) and the MIC [6] was 0.005 µg/mL (≈ 0.0104 µM). It also gave an MIC (Corynebacterium acnes) of 0.005 µg/mL (≈ 0.0104 µM).
In the case of `CC(C)c1c(O)c(Cc2cc(C(=O)C(F)(F)F)c(O)c(C(C)C)c2O)cc(C(=O)C(F)(F)F)c1O` [Z, Methylene-bis-(2,4-dihydroxy-3-isopropyl-5-trifluoro-acetyl)-benzene], the “G6PDH-inhibition Ed50, Immediate Inhibition” value ([7]; 25° C. for 5 minutes preincubation) is reported as 0.58 µg/mL and the “G6PDH-inhibition Ed50, Inhibition of Incubation” value ([7]; 37° C. for 60 minutes preincubation) is reported as 0.13 µg/mL.
With `CCCCCCCCC(C)c1c(O)ccc(C(=O)C(F)(F)F)c1O` (centres unmarked) [M] the MIC [1] was 250 µg/mL (≈ 722 µM), the MIC [2] was 1.25 µg/mL (≈ 3.61 µM) and the MIC (Streptococcus Aronson [3]) was at most 15.6 µg/mL. For the same compound, the MIC [4] was at most 15.6 µg/mL, the MIC (Streptococcus Aronson [5]) was 20 µg/mL (≈ 57.7 µM) and the “Concentration with reduced growth (value in brackets), S.D.T., Streptococcus Aronson” value (Streptococcus Aronson [5]; [8]) was 1.25 µg/mL. For the same compound, the MIC [6] was 1.25 µg/mL (≈ 3.61 µM) and the MIC (Corynebacterium acnes) was 0.31 µg/mL (≈ 0.895 µM).
`O=C(c1ccc(O)c(C2CCCC2)c1O)C(F)(F)F` [N, 2,4-Dihydroxy-3-cyclopentyl-trifluoroacetophenone] showed an MIC [1] of at most 15.6 µg/mL, an MIC [2] of 1.25 µg/mL (≈ 4.56 µM) and an MIC (Streptococcus Aronson [3]) of at most 15.6 µg/mL. The MIC [4] was 62.5 µg/mL (≈ 228 µM), the MIC (Streptococcus Aronson [5]) was 1.25 µg/mL (≈ 4.56 µM) and the MIC [6] was 0.31 µg/mL (≈ 1.13 µM). It also gave an MIC (Corynebacterium acnes) of 0.31 µg/mL (≈ 1.13 µM), an IC50 (HeLa-cell culture; read-out: ED50, HeLa cell culture) of 5.32 µg/mL (≈ 19.4 µM) and a minimal effective concentration (HeLa-cell culture; read-out: Minimal inhibitory concentration, HeLa cell culture) of 3.13 µg/mL.

— patent US4225619A, “Substituted fluoracylresorcinols” (Boehringer Ingelheim GmBH, priority 1976, dated 1980)
